From patent publication EP1233943B1, “IONIZABLE INDOLINONE DERIVATIVES AND THEIR USE AS PTK LIGANDS” (Sugen, Inc., priority 1999, dated 2001)
Values after ≈ are worked out from the molar mass of the structure shown. Read-outs that look alike come from different tables or passages of the source.

What was measured:
in vivo [1] = conditions: mouse, in vivo, ip, 75 mg/kg/day
Procedure: (§1) In most experiments, compound was administered daily.
(§2) Tumor growth was measured using venier calipers.

A375 (human melanoma) = experiment: in vivo; conditions: 75 mg/kg/d IP in DMSO, dosed 3x/week; day 29; BALB/c nu/nu mice
Procedure: as §1, §2

[2] = Oral bioavailability of formulations in beagle dogs; format: in vivo; conditions: higher doses in fasted conditions
Procedure: The formulation described below enhance the oral bioaviability of COMPOUND IV in beagle dogs, a preclinical absorption model.
Both formulations contain 50 mg/gm of Pluronic F-68. The formulation at 50 mg/gm of COMPOUND IV contains 900 mgs of sesame oil and the one that contains 250 mg/gm of COMPOUND IV contains 700 mgs of sesame oil.
AUC refers to the area under the curve of the plasma concentration time curve and represents oral bioavilability (BA). Higher AUC indicates higher BA.

SF763T (human glioma) = conditions: 75 mg/kg/d IP daily in DMSO; day 21; BALB/c nu/nu mice
Procedure: (§3) SF763T, SF767T, and SKOV3TP5 were derived by implanting the parental cells SC into BALB/c nu/nu mice.
(§4) For the SF763T and SF767T cell lines, two to five mL of appropriate medium was added to the slurry and the tumor pieces were further mechanically teased apart. […] Medium was changed every two to three days. After three to five passages, the antibiotic supplements were removed and the cells maintained in antibiotic-free medium.
as §1, §2

SF767T (human glioma) = conditions: 75 mg/kg/d IP daily in DMSO; day 21; BALB/c nu/nu mice
Procedure: as §3, §4, §1, §2

in vivo [3] = experiment: in vivo
Procedure: (§5) C6 cells were cultured in Ham's F-10 supplemented with 5% FBS and 2mM L-glutamine. […] All cell cultures were maintained at 37°C in a humidified atmosphere of 5-10% CO2.
(§6) Tumor cell lines (0.6 - 10 x 10^6 cells/animal; n = 8-20 animals/group) were implanted SC in the hindflank region of 8-12 week old BALB/c nu/nu female mice.
(§7) Tumor growth was measured using venier calipers. Tumor volumes were calculated as the product of length x width x height. Statistical analysis was carried out using Student's t-test.
(§8) C6 cells were implanted SC into athymic mice on day zero. […] On Day 16, all Group 3 animals were humanely sacrificed due to tumor burden (mean tumor diameter approximately 1300 mm^3), and the growth of tumors in Groups 1 and 2 was monitored until the mean tumor burden of each group reached 1300 mm^3.
(§9) Beginning one day post-implantation, compound (200 mg/kg/day in solution in a Labrasol®-containing vehicle) was administered to mice PO. Tumor growth was measured using venier calipers and tumor volumes were calculated as the product of length x width x height.

[4] = Subcutaneous xenograft model in athymic mice, A431; format: in vivo, human; conditions: mouse, in vivo, 100 mg/kg/day; 100 mg/kg/d IP daily in DMSO
Procedure: as §1, §2

A431 (human epidermal) = experiment: Subcutaneous xenograft model in athymic mice, A431; format: in vivo; conditions: 100 mg/kg/d IP daily in DMSO; day 24; BALB/c nu/nu mice
Procedure: as §1, §2

in vivo [5] = conditions: mouse, in vivo, ip, 75 mg/kg/day; remark: listed apart in the source
Procedure: as §1, §2

[6] = test system: EpH4-VEGF1 (murine epithelial); experiment: in vivo; conditions: 75 mg/kg/d IP daily in DMSO; day 18; BALB/c nu/nu mice
Procedure: as §1, §2

SKOV3TP5 (human ovarian) = conditions: 75 mg/kg/d IP daily in DMSO; day 25; BALB/c nu/nu mice
Procedure: as §3
For the SKOV3TP5 cells, fragments of resected tumors were injected SC into mice for in vivo passaging. This procedure was repeated five times before cells were returned to culture as described above.
as §1, §2

Procedure for C6 (rat glioma): as §5, §6, §7, §8, §9
Procedure for physchem: The solution was filtered, appropriate dilutions made and the concentration of the compound in the supernatant was analyzed by a reverse phase HPLC method.

## Cc1[nH]c(C=C2C(=O)Nc3ccccc32)c(C)c1CCC(=O)O [Example 1, 3-[2,4-dimethyl-5-(2-oxo-1,2-dihydro-indol-3-ylidenemethyl)-1H-pyrrol-3-yl]-propionic acid]
physchem; 2% polysorbate-80
  solubility: < 13 mg/mL
physchem; 30% peg 300 in buffer, pH 8.2, organic solvent or mixture
  solubility: 32 mg/mL (≈ 103 mM)
In vivo [1]
  mortality: 0%
A375 (human melanoma)
  % Inhibition @ (day): 56(29) %
[2]
  bioavailability: low bioavailability
C6 (rat glioma); 100 mg/kg/d IP daily in DMSO, day 18, BALB/c nu/nu mice
  % Inhibition @ (day): 65 (18) %
C6 (rat glioma); IP 25 mg/kg Daily X 5, day 18
  % Inhibition (at day): 1(18) %
C6 (rat glioma); IP 50 mg/kg Daily X 5, day 18
  % Inhibition (at day): 68 (18) %
C6 (rat glioma); IP 50 mg/kg Daily, day 18
  % Inhibition (at day): 27 (18) %
C6 (rat glioma); IP 50 mg/kg Three times weekly, day 18
  % Inhibition (at day): 25 (18) %
C6 (rat glioma); IP 50 mg/kg Twice weekly, day 19
  % Inhibition (at day): 36 (19) %
C6 (rat glioma); IP 75 mg/kg Daily X 5, day 18
  % Inhibition (at day): 54 (18) %
C6 (rat glioma); IP 75 mg/kg Daily, day 18
  % Inhibition (at day): 53 (18) %
C6 (rat glioma); IP 75 mg/kg Three times weekly, day 18
  % Inhibition (at day): 29 (18) %
C6 (rat glioma); IP 75 mg/kg Twice weekly, day 19
  % Inhibition (at day): 26 (19) %
C6 (rat glioma); IP 75 mg/kg/day from Day 7, when measurable tumors were present
  efficacy on established tumors: efficacious
C6 (rat glioma); IP 100 mg/kg Daily X 5 followed by Once weekly, day 15
  % Inhibition (at day): 42(15) %
C6 (rat glioma); IP 100 mg/kg Daily, day 18
  % Inhibition (at day): 65 (18) %
C6 (rat glioma); IP 100 mg/kg Three times weekly, day 18
  % Inhibition (at day): 40 (18) %
C6 (rat glioma); IP 100 mg/kg Twice weekly, day 19
  % Inhibition (at day): 38 (19) %
C6 (rat glioma); IP 100 mg/kg twice weekly or three times weekly, statistically significant
  tumor growth inhibition: approximately 40%
C6 (rat glioma); IP 150 mg/kg Daily X 5 followed by once weekly, day 15
  % Inhibition (at day): 51 (15) %
C6 (rat glioma); PO 200 mg/kg/day in a Labrasol-containing vehicle, Day 18 post-implantation, compared to vehicle-treated animals
  tumor growth inhibited: 82%
SF763T (human glioma)
  % Inhibition @ (day): 48 (21) %
SF767T (human glioma)
  % Inhibition @ (day): 46 (21) %
In vivo [3]; ip, 100 mg/kg/day
  mortality: 12.5%
In vivo [3]; po, 200 mg/kg/day
  mortality: 10%
[4]
  mortality: 12.5%
A431 (human epidermal)
  % Inhibition @ (day): 84 (24) %
In vivo [5]
  mortality: 0%
[6]
  % Inhibition @ (day): 34 (18) %
SKOV3TP5 (human ovarian)
  % Inhibition @ (day): 9 (25) %
